Measured values reported in patent US9247759B2, “Identification of human T2R receptors that respond to bitter compounds that elicit the bitter taste in compositions, and the use thereof in assays to identify compounds that inhibit (block) bitter taste in compositions and use thereof” (SENOMYX, INC., priority 2007, dated 2016).
Read-outs that look alike come from different tables or passages of the source.

What was measured:
[1] = molecular target: hT2R8 (Homo sapiens (Human), UniProt Q9NYW2); test: hT2R8 antagonist high-throughput FLIPR assay, stable cell line with G16g44, agonist andrographolide; assay type: cell-based
Method in brief: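 Antagonist screen: compounds co-applied with agonist andrographolide at 200 μM, a dose giving 70–80% of maximal hT2R8 activation. Fluorescence measured by FLIPR in a stable HEK293 line expressing both hT2R8 and the promiscuous G16g44 protein.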

[2] = molecular target: T1, hT2R14 (Homo sapiens (Human), UniProt Q9NYV8); test: hT2R14 antagonist high-throughput FLIPR assay, stable cell line with G16g44, agonist aristolochic acid; assay type: cell-based; conditions: read-out: IC50 on hT2R14 bitter receptor
Method in brief: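 Compounds were co-applied with 3 μM aristolochic acid, a dose set to reach 70-80% of maximal hT2R14 activation. Read-out was FLIPR fluorescence in a stable HEK293 line co-expressing hT2R14 and G16g44.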

[3] = molecular target: hT2R16 (Homo sapiens (Human), UniProt Q9NYV7); test: hT2R panel inhibition, transient HEK293 G16g44, agonist Salicin 1 mM; assay type: cell-based; conditions: HEK293, compound at 25 μM; receptor activated to EC80 with the corresponding agonist; read-out: screening result against bitter receptor 16
Method in brief: (§1)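 One receptor per transfection, EC80 agonist, activity drop with compound = inhibition.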

[4] = molecular target: hT2R64 (Homo sapiens (Human), UniProt P59538); test: hT2R panel inhibition, transient HEK293 G16g44, agonist Aristolochic Acid 1 μM; assay type: cell-based; conditions: HEK293, compound at 25 μM; receptor activated to EC80 with the corresponding agonist; read-out: screening result against bitter receptor 64
Method in brief: as §1

[5] = molecular target: hT2R10 (Homo sapiens (Human), UniProt Q9NYW0); test: hT2R panel inhibition, transient HEK293 G16g44, agonist Strychnine 50 μM; assay type: cell-based; conditions: HEK293, read-out: screening result against bitter receptor 10, compound at 25 μM; receptor activated to EC80 with the corresponding agonist
[6] = test system: hT2R67; test: hT2R panel inhibition, transient HEK293 G16g44, agonist Andrographolide 5 μM; assay type: cell-based, human; conditions: compound at 25 μM; receptor activated to EC80 with the corresponding agonist
Method in brief: as §1

[7] = molecular target: hT2R5 (Homo sapiens (Human), UniProt Q9NYW4); test: hT2R panel inhibition, transient HEK293 G16g44, agonist Picoline 10 mM; assay type: cell-based; conditions: HEK293, compound at 25 μM; receptor activated to EC80 with the corresponding agonist; read-out: screening result against bitter receptor 5
Method in brief: as §1

[8] = molecular target: hT2R4 (Homo sapiens (Human), UniProt Q9NYW5); test: hT2R panel inhibition, transient HEK293 G16g44, agonist Chloroquine pH6.5 5 mM; assay type: cell-based; conditions: HEK293, compound at 25 μM; receptor activated to EC80 with the corresponding agonist; class symbols; read-out: screening result against bitter receptor 4
Method in brief: as §1

[9] = molecular target: hT2R51 (Homo sapiens (Human), UniProt P59533); test: hT2R panel inhibition, transient HEK293 G16g44, agonist Prop 2.5 μM; assay type: cell-based; conditions: HEK293, compound at 25 μM; receptor activated to EC80 with the corresponding agonist; read-out: screening result against bitter receptor 51
Method in brief: as §1

[10] = test system: hT2R55; test: hT2R panel inhibition, transient HEK293 G16g44, agonist Cinchonine 150 μM; assay type: cell-based, human; conditions: compound at 25 μM; receptor activated to EC80 with the corresponding agonist
Method in brief: as §1

[11] = molecular target: hT2R75 (Homo sapiens (Human), UniProt P59540); test: hT2R panel inhibition, transient HEK293 G16g44, agonist Strychnine 1 μM; assay type: cell-based; conditions: HEK293, read-out: screening result against bitter receptor 75, compound at 25 μM; receptor activated to EC80 with the corresponding agonist
[12] = test system: hT2R65; test: hT2R panel inhibition, transient HEK293 G16g44, agonist Oleuropein 1 mM; assay type: cell-based, human; conditions: compound at 25 μM; receptor activated to EC80 with the corresponding agonist
Method in brief: as §1

[13] = molecular target: hT2R61 (Homo sapiens (Human), UniProt P59537); test: hT2R panel inhibition, transient HEK293 G16g44, agonist Aristolochic Acid 25 nM; assay type: cell-based; conditions: HEK293, compound at 25 μM; receptor activated to EC80 with the corresponding agonist; read-out: screening result against bitter receptor 61
Method in brief: as §1

[14] = test system: hT2R54; test: hT2R panel inhibition, transient HEK293 G16g44, agonist Ranitidine 5 mM; assay type: cell-based, human; conditions: compound at 25 μM; receptor activated to EC80 with the corresponding agonist
Method in brief: as §1

[15] = molecular target: hT2R71 (Homo sapiens (Human), UniProt P59536); test: hT2R panel inhibition, transient HEK293 G16g44, agonist Picric Acid 10 μM; assay type: cell-based; conditions: HEK293, compound at 25 μM; receptor activated to EC80 with the corresponding agonist; read-out: screening result against bitter receptor 71
Method in brief: as §1

[16] = test system: hT2R44; test: hT2R panel inhibition, transient HEK293 G16g44, agonist Denatonium 0.5 μM; assay type: cell-based, human; conditions: compound at 25 μM; receptor activated to EC80 with the corresponding agonist
Method in brief: as §1

[17] = molecular target: T1, hT2R14; test: hT2R panel inhibition, transient HEK293 G16g44, agonist Aristolochic Acid 2 μM; assay type: cell-based; conditions: HEK293, compound at 25 μM; receptor activated to EC80 with the corresponding agonist; read-out: screening result against bitter receptor 14
Method in brief: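 Agonist challenge was at EC80, with 0.5 mM andrographolide on hT2R8 and 2 μM aristolochic acid on hT2R14. Inhibition was measured in functional assays in HEK293 cells that stably carry the promiscuous G protein G16g44 and were transiently transfected with the individual receptor.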

[18] = molecular target: hT2R7 (Homo sapiens (Human), UniProt Q9NYW3); test: hT2R panel inhibition, transient HEK293 G16g44, agonist Chloroquine pH6.5 10 mM; assay type: cell-based; conditions: HEK293, compound at 25 μM; receptor activated to EC80 with the corresponding agonist; read-out: screening result against bitter receptor 7
Method in brief: as §1

[19] = test system: hT2R63; test: hT2R panel inhibition, transient HEK293 G16g44, agonist Caffeine 1 mM or Andrographolide 100 μM; assay type: cell-based, human; conditions: compound at 25 μM; receptor activated to EC80 with the corresponding agonist
Method in brief: as §1

[20] = molecular target: hT2R3 (Homo sapiens (Human), UniProt Q9NYW6); test: hT2R panel inhibition, transient HEK293 G16g44, agonist Chloroquine pH6.5 50 μM; assay type: cell-based; conditions: HEK293, compound at 25 μM; receptor activated to EC80 with the corresponding agonist; read-out: screening result against bitter receptor 3
Method in brief: as §1

[21] = read-out: IC50 on hT2R8 bitter receptor
[22] = table after Example 10-97, read-out: hT2R8 IC50

Chain of hT2R8 (Q9NYW2 whole entry): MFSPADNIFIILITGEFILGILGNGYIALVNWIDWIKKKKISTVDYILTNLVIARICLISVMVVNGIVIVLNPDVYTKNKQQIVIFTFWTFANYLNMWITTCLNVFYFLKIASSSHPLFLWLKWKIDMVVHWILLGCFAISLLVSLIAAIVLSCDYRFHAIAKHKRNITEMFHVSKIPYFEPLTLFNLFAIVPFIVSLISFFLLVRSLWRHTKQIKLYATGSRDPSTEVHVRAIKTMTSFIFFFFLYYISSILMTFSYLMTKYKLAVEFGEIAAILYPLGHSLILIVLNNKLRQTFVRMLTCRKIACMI
T1 sequence (Q9NYV8 whole entry): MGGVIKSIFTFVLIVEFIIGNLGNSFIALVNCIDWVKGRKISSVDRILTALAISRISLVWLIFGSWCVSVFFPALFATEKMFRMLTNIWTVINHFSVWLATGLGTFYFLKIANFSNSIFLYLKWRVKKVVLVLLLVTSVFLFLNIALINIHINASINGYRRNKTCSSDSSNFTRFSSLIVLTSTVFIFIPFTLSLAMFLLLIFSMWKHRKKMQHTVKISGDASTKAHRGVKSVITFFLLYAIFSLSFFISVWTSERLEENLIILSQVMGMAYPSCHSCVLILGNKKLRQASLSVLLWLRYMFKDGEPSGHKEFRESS
Chain of hT2R64 (P59538 whole entry): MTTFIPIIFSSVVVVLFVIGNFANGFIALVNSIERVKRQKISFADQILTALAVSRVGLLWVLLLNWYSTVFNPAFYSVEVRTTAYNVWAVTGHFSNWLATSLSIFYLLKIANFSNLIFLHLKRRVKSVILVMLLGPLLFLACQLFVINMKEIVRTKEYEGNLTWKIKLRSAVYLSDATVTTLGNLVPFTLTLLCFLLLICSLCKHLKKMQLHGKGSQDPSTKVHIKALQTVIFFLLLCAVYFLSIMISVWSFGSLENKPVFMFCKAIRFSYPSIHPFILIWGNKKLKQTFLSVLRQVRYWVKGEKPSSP
Chain of hT2R3 (Q9NYW6 whole entry): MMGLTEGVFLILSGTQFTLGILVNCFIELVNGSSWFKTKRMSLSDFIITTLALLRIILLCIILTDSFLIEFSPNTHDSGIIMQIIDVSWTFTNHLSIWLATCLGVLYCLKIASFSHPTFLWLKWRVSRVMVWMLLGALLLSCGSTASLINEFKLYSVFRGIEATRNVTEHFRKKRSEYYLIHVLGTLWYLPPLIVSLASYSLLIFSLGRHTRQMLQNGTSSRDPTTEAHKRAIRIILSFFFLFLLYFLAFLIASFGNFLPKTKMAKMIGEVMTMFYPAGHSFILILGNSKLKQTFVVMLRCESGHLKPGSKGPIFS
Chain of hT2R10 (Q9NYW0 whole entry): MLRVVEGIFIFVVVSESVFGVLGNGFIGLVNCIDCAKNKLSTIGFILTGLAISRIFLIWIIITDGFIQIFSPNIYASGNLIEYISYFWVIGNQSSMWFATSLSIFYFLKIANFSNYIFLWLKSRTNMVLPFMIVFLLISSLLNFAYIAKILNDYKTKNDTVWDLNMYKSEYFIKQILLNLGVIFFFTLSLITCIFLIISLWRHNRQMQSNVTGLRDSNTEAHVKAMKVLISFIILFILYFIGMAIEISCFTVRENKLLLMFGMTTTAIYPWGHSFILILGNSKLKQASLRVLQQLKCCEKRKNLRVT
Chain of hT2R61 (P59537 whole entry): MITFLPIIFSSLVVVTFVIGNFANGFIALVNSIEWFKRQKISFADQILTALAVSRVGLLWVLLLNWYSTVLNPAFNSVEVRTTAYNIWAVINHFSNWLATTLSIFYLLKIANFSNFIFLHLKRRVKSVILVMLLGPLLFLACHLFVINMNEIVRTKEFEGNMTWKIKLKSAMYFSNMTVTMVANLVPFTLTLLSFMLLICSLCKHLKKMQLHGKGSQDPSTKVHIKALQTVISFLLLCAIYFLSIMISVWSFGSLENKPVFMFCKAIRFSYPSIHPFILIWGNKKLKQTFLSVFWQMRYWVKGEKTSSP
Chain of hT2R71 (P59536 whole entry): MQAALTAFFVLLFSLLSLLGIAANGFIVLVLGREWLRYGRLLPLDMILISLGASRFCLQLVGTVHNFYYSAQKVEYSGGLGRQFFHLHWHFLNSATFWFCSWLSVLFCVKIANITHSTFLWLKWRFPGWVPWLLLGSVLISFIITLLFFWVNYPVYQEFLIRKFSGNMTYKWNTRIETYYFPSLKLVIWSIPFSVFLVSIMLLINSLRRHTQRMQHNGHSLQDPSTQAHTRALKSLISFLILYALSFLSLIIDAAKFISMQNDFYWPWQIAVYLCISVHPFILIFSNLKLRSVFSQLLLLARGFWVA
Chain of hT2R7 (Q9NYW3 whole entry): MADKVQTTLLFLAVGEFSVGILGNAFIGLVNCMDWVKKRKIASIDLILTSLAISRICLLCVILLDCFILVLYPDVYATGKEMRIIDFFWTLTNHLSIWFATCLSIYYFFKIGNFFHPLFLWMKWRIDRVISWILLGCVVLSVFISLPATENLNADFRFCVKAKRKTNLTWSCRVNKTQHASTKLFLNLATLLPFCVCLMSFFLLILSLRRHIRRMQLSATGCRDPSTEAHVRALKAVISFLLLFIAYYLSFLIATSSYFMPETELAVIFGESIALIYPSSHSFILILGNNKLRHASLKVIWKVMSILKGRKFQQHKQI
Chain of hT2R75 (P59540 whole entry): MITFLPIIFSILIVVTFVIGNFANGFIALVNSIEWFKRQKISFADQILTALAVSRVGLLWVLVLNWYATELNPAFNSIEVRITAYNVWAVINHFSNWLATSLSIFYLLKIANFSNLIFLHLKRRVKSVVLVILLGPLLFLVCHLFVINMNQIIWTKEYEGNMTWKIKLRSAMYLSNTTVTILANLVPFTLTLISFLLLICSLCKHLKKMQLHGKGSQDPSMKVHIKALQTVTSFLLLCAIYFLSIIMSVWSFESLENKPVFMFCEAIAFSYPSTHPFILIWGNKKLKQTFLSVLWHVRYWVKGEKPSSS
Chain of hT2R51 (P59533 whole entry): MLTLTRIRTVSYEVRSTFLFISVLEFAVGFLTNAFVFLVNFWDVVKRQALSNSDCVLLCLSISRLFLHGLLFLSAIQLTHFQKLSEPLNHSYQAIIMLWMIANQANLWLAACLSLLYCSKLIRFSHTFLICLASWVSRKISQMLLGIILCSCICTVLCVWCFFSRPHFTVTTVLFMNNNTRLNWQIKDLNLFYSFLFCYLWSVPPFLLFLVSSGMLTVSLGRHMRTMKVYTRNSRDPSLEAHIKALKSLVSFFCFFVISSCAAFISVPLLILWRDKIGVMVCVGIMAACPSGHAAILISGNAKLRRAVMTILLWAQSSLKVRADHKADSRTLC
Chain of hT2R4 (Q9NYW5 whole entry): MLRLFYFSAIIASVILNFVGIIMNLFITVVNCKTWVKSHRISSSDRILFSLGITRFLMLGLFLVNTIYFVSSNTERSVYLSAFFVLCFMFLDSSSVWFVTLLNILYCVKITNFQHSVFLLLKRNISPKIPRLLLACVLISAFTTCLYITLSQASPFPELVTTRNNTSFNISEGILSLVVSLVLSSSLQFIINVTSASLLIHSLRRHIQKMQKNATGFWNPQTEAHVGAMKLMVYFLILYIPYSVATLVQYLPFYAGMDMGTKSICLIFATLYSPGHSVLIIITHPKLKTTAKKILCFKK
Chain of hT2R5 (Q9NYW4 whole entry): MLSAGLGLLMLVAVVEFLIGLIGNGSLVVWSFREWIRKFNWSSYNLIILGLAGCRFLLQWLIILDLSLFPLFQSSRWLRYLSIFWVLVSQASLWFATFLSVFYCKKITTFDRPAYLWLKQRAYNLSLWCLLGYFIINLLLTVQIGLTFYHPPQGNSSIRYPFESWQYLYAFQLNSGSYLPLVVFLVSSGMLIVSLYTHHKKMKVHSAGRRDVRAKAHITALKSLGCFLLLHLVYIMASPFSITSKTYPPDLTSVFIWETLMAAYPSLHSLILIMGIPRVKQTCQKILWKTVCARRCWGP
Chain of hT2R16 (Q9NYV7 whole entry): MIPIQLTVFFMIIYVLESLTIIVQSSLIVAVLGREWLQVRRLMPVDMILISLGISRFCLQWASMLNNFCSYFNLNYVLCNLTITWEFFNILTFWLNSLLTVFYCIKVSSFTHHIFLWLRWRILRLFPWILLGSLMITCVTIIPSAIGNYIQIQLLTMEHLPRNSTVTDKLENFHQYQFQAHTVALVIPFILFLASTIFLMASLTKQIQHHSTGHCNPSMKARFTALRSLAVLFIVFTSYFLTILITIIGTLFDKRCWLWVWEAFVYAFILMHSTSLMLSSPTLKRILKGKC

| Structure (SMILES) | melting point [°C] | IC50 [1, 21] [µM] | also measured |
| --- | --- | --- | --- |
| Cc1noc(C)c1Cn1cc(NC(=O)c2ccccn2)cn1 [Example 4-1, N-(1-((3,5-dimethylisoxazol-4-yl)methyl)-1H-pyrazol-4-yl)picolinamide] | 135 to 137 | 0.57 |  |
| Cc1noc(C)c1Cn1cc(NC(=O)c2scc(S(C)(=O)=O)c2Cl)cn1 [Example 4-2, 3-chloro-N-(1-((3,5-dimethylisoxazol-4-yl)methyl)-1H-pyrazol-4-yl)-4-(methylsulfonyl)thiophene-2-carboxamide] | 202 to 204 | 2.09 |  |
| Cc1noc(C)c1Cn1cc(NC(=O)[C@@H](C)c2ccccc2)cn1 [Example 4-3, (S)—N-(1-((3,5-dimethylisoxazol-4-yl)methyl)-1H-pyrazol-4-yl)-2-phenylpropanamide] | 108 to 110 | 0.41 |  |
| COc1cc(CC(=O)Nc2cnn(Cc3c(C)noc3C)c2)cc(OC)c1O [Example 4-4, N-(1-((3,5-dimethylisoxazol-4-yl)methyl)-1H-pyrazol-4-yl)-2-(4-hydroxy-3,5-dimethoxyphenyl)acetamide] | 187 to 188 | 0.46 |  |
| Cc1noc(C)c1Cn1cc(NC(=O)C(C)c2ccccc2)cn1 (stereo not drawn) [Example 4-5, N-(1-((3,5-dimethylisoxazol-4-yl)methyl)-1H-pyrazol-4-yl)-2-phenylpropanamide] | 129 to 130 | 0.32 |  |
| Cc1noc(C)c1Cn1cc(NC(=O)Cc2ccccc2)cn1 [Example 4-6, N-(1-((3,5-dimethylisoxazol-4-yl)methyl)-1H-pyrazol-4-yl)-2-phenylacetamide] | 106 to 108 | 0.53 |  |
| COc1cccc(C(=O)Nc2cnn(Cc3c(C)noc3C)c2)c1 [Example 4-7, N-(1-((3,5-dimethylisoxazol-4-yl)methyl)-1H-pyrazol-4-yl)-3-methoxybenzamide] | 127 to 129 | 0.39 |  |
| Cc1noc(C)c1Cn1cc(NC(=O)C23CC4CC(CC(C4)C2)C3)cn1 [Example 4-16, N-(1-((3,5-dimethylisoxazol-4-yl)methyl)-1H-pyrazol-4-yl) adamantane] | 167 to 169 | 0.88 |  |
| COc1ccc(CN(Cc2ccco2)S(=O)(=O)c2ccc(C(=O)O)cc2)cc1 [Example 5-2, 4-(N-(furan-2-ylmethyl)-N-(4-methoxybenzyl)sulfamoyl)benzoic acid] | 151 to 152 |  | IC50 [2]: 0.59 µM; inhibition at 25 µM [3]: 60 to 80%; inhibition at 25 µM [4]: 60 to 80%; inhibition at 25 µM [5]: 60 to 80%; screening result against bitter receptor 67 [6]: + (20% to 40% inhibition = +); inhibition at 25 µM [7]: 20 to 40%; inhibition at 25 µM [8]: 20 to 40%; inhibition at 25 µM [9]: 40 to 60%; screening result against bitter receptor 55 [10]: ++++ (80% or greater inhibition = ++++); inhibition at 25 µM [11]: 20 to 40%; screening result against bitter receptor 65 [12]: + (20% to 40% inhibition = +); inhibition at 25 µM [13]: > 80%; screening result against bitter receptor 54 [14]: + (20% to 40% inhibition = +); inhibition at 25 µM [15]: 60 to 80%; screening result against bitter receptor 44 [16]: +++ (60% to 80% inhibition = +++); inhibition at 25 µM [17]: > 80%; inhibition at 25 µM [18]: 40 to 60%; screening result against bitter receptor 63 [19]: ++++ (80% or greater inhibition = ++++); inhibition at 25 µM [20]: 40 to 60% |
| Cc1noc(C)c1Cn1cc(N2C(=O)c3ccccc3C2=O)cn1 [Example 9-1, 2-(1-((3,5-dimethylisoxazol-4-yl)methyl)-1H-pyrazol-4-yl)isoindoline-1,3-dione] | 170 to 171 | 0.18 |  |
| Cc1noc(C)c1Cn1cc(N2C(=O)NC(Cc3ccccc3)C2=O)cn1 (stereo not drawn) [Example 10-2, 5-benzyl-3-(1-((3,5-dimethylisoxazol-4-yl)methyl)-1H-pyrazol-4-yl)imidazolidine-2,4-dione] | 169 to 171 | 0.18 |  |
| Cc1noc(C)c1Cn1cc(N2C(=O)CN(CCOc3ccccc3)C2=O)cn1 [Example 10-5, 3-(1-((3,5-dimethylisoxazol-4-yl)methyl)-1H-pyrazol-4-yl)-1-(2-phenoxyethyl)imidazolidine-2,4-dione] | 117 to 118 | 0.06 | IC50 [1, 22]: 0.063 µM |
| Cc1noc(C)c1Cn1cc(-n2c(=O)n(C)n(Cc3ccccc3)c2=O)cn1 [Example 10-65, 1-Benzyl-4-(1-((3,5-dimethylisoxazol-4-yl)methyl)-1H-pyrazol-4-yl)-2-methyl-1,2,4-triazolidine-3,5-dione] | 124 to 126 | 0.02 | IC50 [1, 22]: 0.019 µM |
| COc1ccccc1CCN1CC(=O)N(c2cnn(Cc3c(C)noc3C)c2)C1=O [Example 10-76, 3-(1-((3,5-dimethylisoxazol-4-yl)methyl)-1H-pyrazol-4-yl)-1-(2-methoxyphenethyl)imidazolidine-2,4-dione] | 97 to 98 | 0.14 | IC50 [1, 22]: 0.097 µM |
| Cc1noc(C)c1Cn1cc(N2C(=O)CN(CCc3cccc(F)c3)C2=O)cn1 [Example 10-77, 3-(1-((3,5-dimethylisoxazol-4-yl)methyl)-1H-pyrazol-4-yl)-1-(3-fluorophenethyl)imidazolidine-2,4-dione] | 110 to 111 | 0.06 | IC50 [1, 22]: 0.064 µM |
| Cc1noc(C)c1Cn1cc(N2C(=O)CN(CCc3ccccc3)C2=O)cn1 [Example 10-78, 3-(1-((3,5-dimethylisoxazol-4-yl)methyl)-1H-pyrazol-4-yl)-1-phenethylimidazolidine-2,4-dione] | 95 to 96 | 0.14 | IC50 [1, 22]: 0.139 µM |
| COc1cccc(CN2C(=O)N(c3cnn(Cc4c(C)noc4C)c3)C(=O)C2(C)C)c1 [Example 12-32, 3-(1-((3,5-dimethylisoxazol-4-yl)methyl)-1H-pyrazol-4-yl)-1-(3-methoxybenzyl)-5,5-dimethylimidazolidine-2,4-dione] | 107 to 108 | 0.08 |  |
